Entries after “also recorded” stand apart in the source; their conditions may differ.
Assays:
[1] = molecular target: T1, thioredoxin reductase (TRR) (Bos taurus, UniProt O62768); assay: NADPH oxidation at 340 nm by TRR in the absence of TRX; assay type: biochemical, bovine
T1 sequence (O62768 1-499): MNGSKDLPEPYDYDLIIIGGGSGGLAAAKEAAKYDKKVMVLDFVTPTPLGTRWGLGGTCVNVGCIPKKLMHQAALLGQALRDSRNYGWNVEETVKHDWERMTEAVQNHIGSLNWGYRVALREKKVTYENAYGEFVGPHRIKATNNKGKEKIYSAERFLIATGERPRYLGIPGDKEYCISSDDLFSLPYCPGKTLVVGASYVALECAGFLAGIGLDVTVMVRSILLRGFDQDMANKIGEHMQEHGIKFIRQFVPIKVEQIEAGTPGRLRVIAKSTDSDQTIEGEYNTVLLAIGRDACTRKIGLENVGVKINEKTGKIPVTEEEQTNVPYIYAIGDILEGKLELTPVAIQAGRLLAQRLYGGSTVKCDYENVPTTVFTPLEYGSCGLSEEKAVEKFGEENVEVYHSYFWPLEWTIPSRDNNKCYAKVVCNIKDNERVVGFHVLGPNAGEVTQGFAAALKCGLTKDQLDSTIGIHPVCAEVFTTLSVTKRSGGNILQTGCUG
Protocol: (§1) The activity of TRR and TRX was determined by following NADPH oxidation at 340 nm according to the previously reported method. See, Luthman, M., and Holmgren, A. Rat liver thioredoxin and thioredoxin reductase: purification and characterization. Biochemistry 21:6628-6633 (1982). A typical assay mixture contained TR buffer (50 mM potassium phosphate, pH 7.0, 1 mM EDTA), 200 μM NADPH, 1.6 μg bovine TRR, and one or more of the following: 4.8 μM TRX, 86 μM insulin, and one of the disulfides described herein. All disulfides were added to reactions as 10× solutions in TR buffer. The total volume of each reaction was 0.1 mL. Reactions were initiated by the addition of TRR and were incubated at 25° C. for 40 min. The activity was calculated using a 4 min. linear portion of each reaction. Enzyme assays were carried out using either a Molecular Devices SpectraMaxPlus UV plate reader or a Varian Cary 100 UV-visible Spectrophotometer.
(§2) Data was then collected and plotted in Microsoft Excel. Error calculations, and graphical representations were performed in Microsoft Excel and Kaleidograph (ver. 3.5). Nonlinear data was graphically rendered using Kaleidograph. ANOVA and other statistical analyses were performed using SAS (ver. 8.2). Unless otherwise noted, significance level was set at 0.05, and error bars represent actual experimental standard deviation.

thioredoxin (TRX) = molecular target: T2, thioredoxin (TRX) (Homo sapiens, UniProt P10599); assay: NADPH oxidation at 340 nm by TRR in the presence of TRX; assay type: biochemical
T2 sequence (P10599 1-105): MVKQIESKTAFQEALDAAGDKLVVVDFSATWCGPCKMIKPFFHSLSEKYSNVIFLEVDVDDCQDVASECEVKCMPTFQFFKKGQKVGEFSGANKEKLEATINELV
Protocol: as §1, §2

glutaredoxin = molecular target: T3, glutaredoxin (Homo sapiens, UniProt P35754); assay: Glutaredoxin assay in the presence of reduced glutathione and glutathione reductase; assay type: biochemical
T3 sequence (P35754 1-106): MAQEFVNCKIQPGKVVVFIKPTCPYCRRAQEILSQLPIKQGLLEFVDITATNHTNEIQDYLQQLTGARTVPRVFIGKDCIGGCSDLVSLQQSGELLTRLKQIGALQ
Excerpt: In addition to the absence of interference with anti-cancer activity, results from in vivo studies have shown that Tavocept™ may elicit the restoration of apoptotic sensitivity in tumor cells through thioredoxin- and glutaredoxin-mediated mechanisms and this may be an important element of its effectiveness as a chemotherapeutic agent.

[2] = molecular target: T4, glutathione-S-transferase (GST), m1-1 isotype (Homo sapiens, UniProt P09488); assay: GST assay: conjugation of reduced glutathione to CDNB, absorbance at 340 nm; assay type: biochemical; conditions: difference of relative activity from 100%
T4 construct: purchased
T4 sequence (P09488 1-218): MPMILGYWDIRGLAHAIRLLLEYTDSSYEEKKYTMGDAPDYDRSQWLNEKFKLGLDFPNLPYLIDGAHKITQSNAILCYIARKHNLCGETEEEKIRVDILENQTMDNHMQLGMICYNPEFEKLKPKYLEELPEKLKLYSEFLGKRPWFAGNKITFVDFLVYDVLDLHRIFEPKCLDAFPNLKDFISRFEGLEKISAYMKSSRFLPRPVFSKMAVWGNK
Excerpt: The following experiments were designed to determine if Tavocept™ has an inhibitory or stimulatory effect on GST. […] An in vitro assay for GST has been developed and reported. See, Meyer, D. J. and Ketterer, B., Purification of soluble human glutathione S-transferases. Methods Enzymol. 252:53-65 (1995). This assay monitors the conjugation of reduced glutathione to 1-chloro-2,4-dinitrobenzene (CDNB), as illustrated in Reaction Scheme II, below.
Reduced thiol forms a conjugate with CDNB (extinction coefficient=9600 M^−1 cm^−1), which is detected at 340 nm. Stock solutions of GSH, CDNB, Tavocept™ were prepared by dissolving the reagent in sterile water at the concentrations listed below prior to use. […] Slopes were measured in the linear range of the assay (i.e., typically between 5 to 10 min.). In assays where the effect of Tavocept™ on GST activity was measured, 20 μL of either a 500 mM, 166.7 mM, or 55.6 mM stock solution of Tavocept™ was added to standard reactions using 1 mM GSH as the enzyme substrate. […]
Raw data was obtained on a Cary 100 spectrophotometer. […] No absorbance values were collected during the process of enzyme addition. […] It was during this time that reaction rates (i.e., slopes of change in absorbance with time) were measured using the Cary 100 software. […]

[3] = based on magnitude and concentration-dependence of oxidation responses

## O=S(=O)([O-])CCSSCCS(=O)(=O)[O-].[Na+].[Na+] [Tavocept™, disodium 2,2′-dithio-bis-ethane sulfonate]
[1]; [3]
  substrate for TRR: not for TRR
[1]; no TRX, 200 μM NADPH, 25° C.
  NADPH oxidation by TRR in the absence of TRX: indistinguishable from background
Thioredoxin (TRX); 4.8 μM TRX, 200 μM NADPH, 25° C.
  NADPH oxidation by TRR in the presence of TRX: concentration-dependent increase
Thioredoxin (TRX); [3]
  substrate for TRX: most likely a substrate for TRX; also recorded: substrate for thioredoxin
glutaredoxin
  activity with glutaredoxin: substrate-like activity
[2]; 1.1 mM Tavocept
  Percent Inhibition: 5.6%
[2]; 3.3 mM Tavocept
  Percent Inhibition: 39%
